# Assay results from publication PMC6104039 (Nature Communications, 2018).
# “And” between values parts separate entries of the source, which are not always exact repeats. Equal values may be shown once.
# What was measured:
# [1] = molecular target: T1, CerS1 (Homo sapiens, UniProt P27544); assay: CerS1 activity as a function of substrate concentration (Vmax, Khalf, mode of inhibition); type: biochemical; parameters: expressed in transfected cells; conditions: dihydrosphingosine and C18:0-CoA substrates
# T1 sequence (P27544 1-350): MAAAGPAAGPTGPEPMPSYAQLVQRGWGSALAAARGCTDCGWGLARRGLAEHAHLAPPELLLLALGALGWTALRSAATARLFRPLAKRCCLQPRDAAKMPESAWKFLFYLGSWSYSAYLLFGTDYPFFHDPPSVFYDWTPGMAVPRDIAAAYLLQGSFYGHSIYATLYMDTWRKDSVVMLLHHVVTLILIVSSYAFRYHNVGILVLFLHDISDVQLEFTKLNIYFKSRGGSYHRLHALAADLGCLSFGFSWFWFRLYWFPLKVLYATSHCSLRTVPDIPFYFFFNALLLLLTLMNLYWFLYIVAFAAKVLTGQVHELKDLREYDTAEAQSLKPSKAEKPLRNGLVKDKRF
# [2] = test system: gastrocnemius muscle; assay: Targeted analysis of ceramide, SM and HexCer in gastrocnemius muscle; type: in vivo, mice; parameters: HexCer 18:1/22:0 content of gastrocnemius muscle / SM 34:1 content of gastrocnemius muscle / SM 34:2 content of gastrocnemius muscle / SM 36:2 content of gastrocnemius muscle / SM 36:1 content of gastrocnemius muscle / SM 40:1 content of gastrocnemius muscle / SM 42:2 content of gastrocnemius muscle / SM 42:1 content of gastrocnemius muscle / Cer 18:1/16:0 content of gastrocnemius muscle / Cer 18:1/18:0 content of gastrocnemius muscle / Cer 18:2/18:0 content of gastrocnemius muscle / Cer 18:0/18:0 content of gastrocnemius muscle / Cer 18:1/22:0 content of gastrocnemius muscle / Cer 18:1/24:1 content of gastrocnemius muscle / Cer 18:0/24:1 content of gastrocnemius muscle / Cer 18:1/24:0 content of gastrocnemius muscle / HexCer 18:1/16:0 content of gastrocnemius muscle / HexCer 18:1/18:0 content of gastrocnemius muscle / HexCer 18:1/20:0 content of gastrocnemius muscle: unit not given beside the values
smiles,measurement,setting,value
"C[C@@](N)(CO)CCc1ccc(OCc2ccc(Cl)c(Cl)c2)cc1 [P053, (S)-2-amino-4-(4-(3,4-dichlorobenzyloxy)phenyl)-2-methylbutan-1-ol]",mode of inhibition,[1],non-competitive inhibitor
same,"C18 ceramide, C18 dihydroceramide and 18:2/18:0 ceramide in gastrocnemius muscle",[2]; 5 mg/kg daily,significant reductions
same,Cer 18:0/18:0 content of gastrocnemius muscle,"[2]; Chow + P053, individual mice",6.716 and 7.477 and 5.961 and 6.052 and 7.077 and 6.063 and 5.232 and 5.747 and 5.304 and 6.401
same,Cer 18:0/24:1 content of gastrocnemius muscle,"[2]; Chow + P053, individual mice",3.2091 and 2.598 and 3.667 and 1.8279 and 1.954 and 2.772 and 2.055 and 2.027 and 2.139 and 3.699
same,Cer 18:1/16:0 content of gastrocnemius muscle,"[2]; Chow + P053, individual mice",0.3484 and 0.3091 and 0.3437 and 0.3068 and 0.4605 and 0.637 and 0.2188 and 0.4293 and 0.2277 and 0.4584
same,Cer 18:1/18:0 content of gastrocnemius muscle,"[2]; Chow + P053, individual mice",20.203 and 22.2043 and 20.4893 and 19.2549 and 21.0178 and 15.4813 and 13.2288 and 14.0008 and 17.6182 and 17.1195
same,Cer 18:1/20:0 content of gastrocnemius muscle,"[2]; Chow + P053, individual mice",0.4999 and 0.7758 and 0.6909 and 0.4845 and 0.671 and 0.9486 and 0.5576 and 0.508 and 0.7146 and 0.7451
same,Cer 18:1/22:0 content of gastrocnemius muscle,"[2]; Chow + P053, individual mice",2.697 and 2.247 and 2.924 and 2.061 and 2.474 and 3.27 and 1.828 and 2.047 and 1.902 and 3.1173
same,Cer 18:1/24:0 content of gastrocnemius muscle,"[2]; Chow + P053, individual mice",7.198 and 5.637 and 7.43 and 4.359 and 4.709 and 6.914 and 4.421 and 4.245 and 5.265 and 6.526
same,Cer 18:1/24:1 content of gastrocnemius muscle,"[2]; Chow + P053, individual mice",11.8242 and 9.129 and 9.681 and 7.066 and 8.758 and 11.6384 and 7.885 and 7.128 and 7.643 and 10.6448
same,Cer 18:2/18:0 content of gastrocnemius muscle,"[2]; Chow + P053, individual mice",0.4658 and 0.5512 and 0.4225 and 0.4514 and 0.5661 and 0.3835 and 0.2283 and 0.4455 and 0.4165 and 0.4597
same,HexCer 18:1/16:0 content of gastrocnemius muscle,"[2]; Chow + P053, individual mice",0.2006 and 0.1094 and 0.05472 and 0.08462 and 0.1035 and 0.3016 and 0.02008 and 0.2899 and 0.1794 and 0.1526
same,HexCer 18:1/18:0 content of gastrocnemius muscle,"[2]; Chow + P053, individual mice",2.77 and 1.138 and 0.685 and 0.5505 and 1.7658 and 1.01 and 1.02 and 3.397 and 2.789 and 0.3088
same,HexCer 18:1/20:0 content of gastrocnemius muscle,"[2]; Chow + P053, individual mice",4.98 and 2.2562 and 1.185 and 0.63 and 2.136 and 1.46 and 2.186 and 5.934 and 4.2225 and 0.5191
same,HexCer 18:1/22:0 content of gastrocnemius muscle,"[2]; Chow + P053, individual mice",28.6994 and 10.5255 and 7.341 and 3.05 and 12.9786 and 10.4072 and 8.903 and 30.0855 and 20.1916 and 3.513
same,HexCer 18:1/22:1 content of gastrocnemius muscle,"[2]; Chow + P053, individual mice",2.443 and 0.8441 and 0.5964 and 0.2415 and 0.9642 and 0.3777 and 0.6547 and 2.558 and 1.9817 and 0.2068
same,HexCer 18:1/24:0 content of gastrocnemius muscle,"[2]; Chow + P053, individual mice",131.55 and 47.7053 and 35.5956 and 20.727 and 57.5213 and 45.8559 and 36.9456 and 110.769 and 86.5459 and 16.7978
same,HexCer 18:1/24:1 content of gastrocnemius muscle,"[2]; Chow + P053, individual mice",55.5818 and 22.7923 and 17.8764 and 8.062 and 22.9046 and 20.0825 and 17.0776 and 61.9168 and 40.6919 and 8.475
same,SM 34:1 content of gastrocnemius muscle,"[2]; Chow + P053, individual mice",55.2092 and 65.2319 and 37.406 and 53.6606 and 49.036 and 73.0423 and 41.7651 and 81.6186 and 53.5156 and 54.7372
same,SM 34:2 content of gastrocnemius muscle,"[2]; Chow + P053, individual mice",2.561 and 2.363 and 1.4133 and 1.332 and 1.809 and 2.655 and 1.68 and 2.4957 and 1.926 and 1.425
same,SM 36:1 content of gastrocnemius muscle,"[2]; Chow + P053, individual mice",242.303 and 230.3 and 206.587 and 243.389 and 210.049 and 199.927 and 174.992 and 270.736 and 215.295 and 156.154
same,SM 36:2 content of gastrocnemius muscle,"[2]; Chow + P053, individual mice",3.724 and 3.017 and 3.098 and 3.4 and 2.856 and 3.2428 and 2.648 and 4.315 and 4.019 and 3.053
same,SM 40:1 content of gastrocnemius muscle,"[2]; Chow + P053, individual mice",97.5537 and 51.1596 and 53.7207 and 21.6057 and 37.8369 and 48.3173 and 39.3705 and 88.0525 and 69.3339 and 48.817
same,SM 42:1 content of gastrocnemius muscle,"[2]; Chow + P053, individual mice",88.2897 and 52.3856 and 29.1894 and 16.6817 and 42.3452 and 43.7529 and 25.0289 and 89.171 and 54.8125 and 29.4411
same,SM 42:2 content of gastrocnemius muscle,"[2]; Chow + P053, individual mice",288.299 and 175.495 and 168.331 and 87.7791 and 166.49 and 221.175 and 113.727 and 338.716 and 212.277 and 185.512
same,Cer 18:0/18:0 content of gastrocnemius muscle,"[2]; HFD + P053, individual mice",6.696 (2×) and 6.991 and 7.614 and 9.306 and 10.4442 and 6.363 and 5.154 and 5.258 and 4.509
same,Cer 18:0/24:1 content of gastrocnemius muscle,"[2]; HFD + P053, individual mice",4.519 and 1.914 and 1.715 and 1.673 and 2.381 and 12.1481 and 1.438 and 1.998 and 3.6 and 0.9202
same,Cer 18:1/16:0 content of gastrocnemius muscle,"[2]; HFD + P053, individual mice",0.2953 and 0.2425 and 0.247 and 0.3667 and 0.6053 and 1.286 and 0.3154 and 0.1867 and 0.2439 and 0.2642
same,Cer 18:1/18:0 content of gastrocnemius muscle,"[2]; HFD + P053, individual mice",21.9657 and 17.6562 and 21.0561 and 17.8475 and 19.1897 and 17.6974 and 13.2972 and 14.5082 and 22.6242 and 9.617
same,Cer 18:1/20:0 content of gastrocnemius muscle,"[2]; HFD + P053, individual mice",1.3 and 0.9773 and 1.039 and 0.7088 and 1.3618 and 1.151 and 0.5199 and 0.8084 and 1.045 and 0.6734
same,Cer 18:1/22:0 content of gastrocnemius muscle,"[2]; HFD + P053, individual mice",6.663 and 2.886 and 2.627 and 3.138 and 3.9433 and 5.15 and 2.442 and 3.877 and 4.12 and 2.291
same,Cer 18:1/24:0 content of gastrocnemius muscle,"[2]; HFD + P053, individual mice",8.75 and 4.723 and 4.013 and 4.317 and 4.82 and 10.8999 and 3.077 and 4.318 and 7.266 and 2.309
same,Cer 18:1/24:1 content of gastrocnemius muscle,"[2]; HFD + P053, individual mice",11.3105 and 7.675 and 5.851 and 7.272 and 9.129 and 11.5338 and 5.462 and 9.029 and 11.0555 and 5.753
same,Cer 18:2/18:0 content of gastrocnemius muscle,"[2]; HFD + P053, individual mice",0.4484 and 0.4926 and 0.3634 and 0.4132 and 0.2765 and 0.3608 and 0.2849 and 0.2673 and 0.3042 and 0.2757
same,HexCer 18:1/16:0 content of gastrocnemius muscle,"[2]; HFD + P053, individual mice",0.07083 and 0.2298 and 0.1257 and 0.1094 and 0.2809 and 0.09552 and 0.04859 and 0.09042 and 0.2927 and 0.128
same,HexCer 18:1/18:0 content of gastrocnemius muscle,"[2]; HFD + P053, individual mice",0.6278 and 2.316 and 1.725 and 1.053 and 1.514 and 0.3784 and 1.339 and 1.2334 and 3.411 and 0.7622
same,HexCer 18:1/20:0 content of gastrocnemius muscle,"[2]; HFD + P053, individual mice",1.025 and 3.657 and 4.193 and 2.559 and 2.728 and 0.775 and 2.303 and 1.6216 and 6.493 and 1.535
same,HexCer 18:1/22:0 content of gastrocnemius muscle,"[2]; HFD + P053, individual mice",7.522 and 16.4106 and 20.0443 and 14.4231 and 12.9484 and 5.248 and 12.5609 and 13.236 and 35.9679 and 8.484
same,HexCer 18:1/22:1 content of gastrocnemius muscle,"[2]; HFD + P053, individual mice",0.5466 and 1.486 and 1.3 and 1.291 and 1.104 and 0.193 and 0.8615 and 0.6275 and 2.662 and 0.7906
same,HexCer 18:1/24:0 content of gastrocnemius muscle,"[2]; HFD + P053, individual mice",35.0734 and 65.2406 and 70.8422 and 52.1762 and 47.7217 and 19.7676 and 40.4927 and 43.8786 and 131.229 and 26.1187
same,HexCer 18:1/24:1 content of gastrocnemius muscle,"[2]; HFD + P053, individual mice",11.8966 and 34.458 and 33.6892 and 26.2534 and 24.7881 and 7.796 and 20.5958 and 23.2933 and 61.9739 and 13.7499
same,SM 34:1 content of gastrocnemius muscle,"[2]; HFD + P053, individual mice",32.5351 and 75.4148 and 64.2595 and 68.4699 and 74.2315 and 69.3058 and 56.8022 and 63.1231 and 40.9981 and 91.0819
same,SM 34:2 content of gastrocnemius muscle,"[2]; HFD + P053, individual mice",1.53 and 2.835 and 1.998 and 2 and 2.418 and 2.144 and 2.133 and 2.338 and 2.209 and 2.34
same,SM 36:1 content of gastrocnemius muscle,"[2]; HFD + P053, individual mice",125.344 and 223.512 and 246.64 and 236.8 and 200.399 and 135.056 and 273.936 and 199.397 and 141.624 and 291.891
same,SM 36:2 content of gastrocnemius muscle,"[2]; HFD + P053, individual mice",1.77 and 3.547 and 2.905 and 2.734 and 5.421 and 3.741 and 3.767 and 2.494 and 1.973 and 4.895
same,SM 40:1 content of gastrocnemius muscle,"[2]; HFD + P053, individual mice",74.9293 and 89.7182 and 104.131 and 44.9676 and 58.8143 and 74.268 and 90.7758 and 60.0553 and 174.22 and 68.0463
same,SM 42:1 content of gastrocnemius muscle,"[2]; HFD + P053, individual mice",42.7745 and 43.392 and 45.2063 and 34.368 and 60.6982 and 34.7124 and 28.1104 and 34.3376 and 109.833 and 16.1089
same,SM 42:2 content of gastrocnemius muscle,"[2]; HFD + P053, individual mice",124.791 and 220.201 and 175.989 and 144.772 and 171.488 and 135.796 and 111.009 and 132.926 and 406.752 and 102.287
